The text below walks through data of US7700375B2, “Fluorescent labeling of specific protein targets in vitro and in vivo” (Valorisation-Recherche, LP, priority 2004, dated 2010).

Data set [1] can be described thus: Fluorescence spectral properties of fluorogens and their ethanethiol adducts. Type of data set: physicochemical. Conditions: for φ (quantum yield): rapid approximation method of reference 34. The method, then:
For the application of this fluorogenic reaction to the detection of thiols and dithiols, two important criteria are the fluorescence intensity of the thiol addition product and the ratio of its fluorescence compared to its parent fluorogen. We studied the effect of electron withdrawing and donating substituants on these criteria by preparing the derivatives of fluorogen 4 shown in Scheme 1. Fluorogen 5, bearing an electron withdrawing ester group, was prepared according to a protocol similar to that used for fluorogen 4, but using an ester-substituted maleic anhydride derived by oxidation of dimethyl L-tartrate according to a published procedure.^31 Fluorogen 6 bears an electron donating methyl group and was obtained in similar yield by adaptation of the standard literature protocol,^25 using citraconic anhydride. The reaction of 5 and 6 with ethanethiol in DMSO led to the formation of thiol adducts 8 and 9, whose fluorescence was characterized as shown in Table 1. Even from this small series, certain tendencies are apparent. Increasing the electron donating capacity of the substituent appears to have a significant effect on the absorbance maximum corresponding to the wavelength of excitation, increasing by 37 nm from 8 to 9. Although the emission wavelength increases very slightly over the same series, the net effect on the Stokes shift is a significant decrease with increasing electron donating capacity of the substituent.
(§1) Comparison of the fluorescent properties^34 of the four different parent fluorogens (and their corresponding thiol adducts) studied herein (see Table 2) substantiates our retention of compounds 13 and 20 as candidates for further tests with proteins.
The following material were obtained from Aldrich and were used without further purification: 2-hydroxy-5-nitrobenzaldehyde, N-acetylglycine, maleic anhydride, p-nitrophenylacetic acid, L-aspartic acid dimethyl ester hydrochloride, citraconic anhydride, dimethyl L-tartrate, dimethyl malonate. All reactions were carried out under an atmosphere of dry nitrogen employing conventional bench-top techniques except for reactions with thiols. ^13C-NMR and ^1H-NMR spectra were recorded on AMXR400 or AMX300 spectrometers and were referenced to the residual proton or ^13C signal of the solvent. Mass spectra were determined by FAB+ ionization on an AutoSpecQ spectrometer at the Regional Mass Spectrometry Centre at the Université de Montréal. Infrared spectra were recorded on a Perkin-Elmer (FTIR) spectrometer. Melting points (uncorrected) were determined on a Unimelt Tomas-Hoover or on a Gallenkamp meting point apparatus. Fluorescence spectra were recorded using a Varian Cary Eclipse fluorimeter and gel electrophoresis was carried out on a SpectraPhoresis 100 apparatus.

Data set [2] is described as follows: Thiol addition reaction of fluorogens with ethanethiol (fluorescence increase). From the text:
The fluorescence spectra obtained upon excitation at 350 nm before and after the reaction of ethanethiol with compound 4 are shown in FIG. 1.
Based on this observation, we reasoned that compounds 4 and 13 should also react efficiently with one equivalent of a dithiol bearing two sulfhydryl groups separated by an appropriate distance. […] That is, after fluorogen 4 undergoes an initial addition reaction with BMMB, the second addition reaction with the pendant sulfhydryl group of BMMB is intramolecular and presumably much faster (Scheme 5).
[formula] […] In the case of dithiol addition, this second addition reaction with a sulfhydryl group would be intramolecular, and presumably even faster.

Data set [3] in a line: Product study of reaction with 3-mercaptopropionic acid by capillary electrophoresis. The following applies: up to 2 equivalents of 3-mercaptopropionic acid; CE. From the text:
Product studies carried out for the reaction of 4 with simple thiols support the hypothesis that the second addition reaction is faster than the first. Initial experiments involved the addition of ethanethiol to 4 and attempts to separate and characterize the dithiolated and monothiolated adducts. However, no significant peak corresponding to the putative monothiolated adduct could be isolated by flash chromatography, so an experiment was designed to facilitate the separation of the monothiolated and dithiolated adducts by capillary electrophoresis (CE, see Experimental Section). By using 3-mercaptopropionic acid as a simple thiol, we ensured that at basic pH, any monothiolated adduct would singly negatively charged, due to ionization of the carboxylate group, whereas the dithiolated product would be doubly negatively charged.
After reaction of 1 mM 1 with 0.25-3 mM 3-mercaptopropionic acid in DMSO-H2O 1.9 overnight, the fluorescence of the reaction mixture was measured. To this mixture was then added 3 equivalents of ethanethiol, converting all unreacted and monothiolated adducts to dithiolated adducts. […] Their relative concentrations were calculated by the areas under their peaks, recorded UV detection at 370 nm. […]

Data set [4] is described as follows: Temperature dependence of first-order rate constants of ethanethiol addition. Conditions: 0.1 mM fluorogen, 2.0 mM ethanethiol in DMF, 10-40° C. On the procedure: First-order rate constants for the reaction of 0.1 mM 13 with 2.0 mM ethanethiol in DMF were also measured as a function of temperature from 10-40° C. Over this temperature range, the observed rate constants increased slightly with temperature, but varied by less than a factor of 2, and evaporation of ethanethiol was problematic at 40° C. For these reasons, precise quantitative analysis of the effect of temperature (for example, in the form of an Eyring plot) was not possible.

A further data set concerns the target T1, mCys-Fos (Homo sapiens, UniProt P01100, C204S).
T1 construct: the C99S mutant of a fragment of Fos; His-tag (N); made in house; host or cells: XL1-blue E. coli
Description: Protein labeling in vitro, SDS-PAGE with UV illumination. The following applies: 0.242 mM protein, 0.5 mM of 20 or 0.05 mM of 13, 25° C. overnight. The format is biochemical. The method, then:
(§2) As mentioned in the introduction, an α-helical protein was designed to bear two cysteine residues, separated by a distance complementary to that between the maleimide groups of the designated fluorogen. The protein chosen as a starting point for this design was the C99S mutant of a fragment of Fos,^21 a known α-helical protein^22 whose recombinant expression has been published.^23 Site-directed mutagenesis was then performed^20,35 to introduce a cysteine residue (L56C), separated by two turns of the α-helical motif from the native Cys49, positioning the protein's only two thiol groups approximately 10 Å apart.^36 Although at higher concentrations, Fos is known to form a homodimer,^22 the distance between the intermolecular cysteine residues in this putative homodimer would render their reaction with a single fluorogen molecule impossible. […]
(§3) Purified mCys-Fos and diCys-Fos were then tested in vitro for their ability to react with fluorogens 13 and 20. After incubation of 0.242 mM protein with 0.5 mM of 20 or 0.05 mM of 13 at 25° C. overnight, glycerol was added and the reaction mixtures were analyzed by SDS-PAGE using UV illumination and then Coomassie blue staining. […]

Another data set deals with diCys-Fos (Homo sapiens, UniProt P01100, C204S/L161C). The data set is described as above. Type of data set: biochemical. Also on record: the C99S mutant of a fragment of Fos. The following applies: 0.242 mM protein, 0.5 mM of 20 or 0.05 mM of 13, 25° C. overnight. On the procedure: as §2, §3
diCys-Fos, sequence (P01100 118-211 L161C/C204S limits assumed): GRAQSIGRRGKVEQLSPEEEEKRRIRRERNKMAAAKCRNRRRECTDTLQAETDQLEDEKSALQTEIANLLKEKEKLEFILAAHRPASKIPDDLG
Another data set can be described thus: Solubility. The format is physicochemical. On the procedure: as §1
Finally, we wished to determine if fluorogens such as 13 and 20 were cytotoxic. […] Furthermore, even at 300 μM 20, the limit of its solubility in cell culture, 70% of COS cells were still viable (FIG. 8). […] The convenience of the application of this fluorescent labeling method is obvious from the low cytoxocity of 20, even at concentrations 30 times greater than those necessary for efficient labeling.

Setting [5] is: in DMSO, ratio of areas under fluorescence emission bands of fluorogen and its thiol adduct.

SMILES strings stand for the structures. Where only a bound is given, the exact number is not on record here.

T1 sequence (P01100 118-211 C204S limits assumed): as the sequence (P01100 118-211 L161C/C204S limits assumed) above, with C44L counted along it

As to `CCSC1CC(=O)N(c2cc3c4c(cc(N5C(=O)CC(SCC)C5=O)cc4c2)C(=O)N([C@@H](CC(=O)OC)C(=O)OC)C3=O)C1=O` (stereo partly drawn) [Compound 21, N-(3,6-Di(3′-ethylthiosuccinimidyl)-1,8-naphthalyl)-L-aspartic acid dimethyl ester], in data set [1] (10:90 DMSO: water), the Stokes shift is reported as 67 nm and the λexc was 511 nm. Also, the “fluorescence of ethanethiol adduct relative to parent fluorogen (factor)” value in data set [1] (adduct vs parent fluorogen (16 in DMSO)) came to 8.5. The “detectability of adduct fluorescence” value in data set [1] (ethanethiol adduct) is listed as “easily detected at micromolar concentrations”.
For the molecule `CCSC1C(=O)N(c2ccc3oc(=O)c(N4C(=O)C(SCC)C(C(=O)OC)C4=O)cc3c2)C(=O)C1C(=O)OC` (centres unmarked) [Compound 8, 3,6-Di-(3′-ethylthio-4′-methoxycarbonylsuccinimidyl)chromen-2-one], in data set [1] (in DMSO), the Stokes shift came out at 121 nm and the λexc worked out at 336 nm.
As to `O=C1C=CC(=O)N1c1ccc2oc(=O)c(N3C(=O)C=CC3=O)cc2c1` [Compound 4, 3,6-Dimaleimidylchromen-2-one], the melting point is > 296 °C (dec.).
For the molecule `CC1=CC(=O)N(c2ccc3oc(=O)c(N4C(=O)C=C(C)C4=O)cc3c2)C1=O` [Compound 6, 3,6-Di-(3′-methylmaleimidyl)chromen-2-one], in data set [1] (in DMSO), the Stokes shift is given as 82 nm; the “λem (emission band)” value is 370-600 nm; the “λem, wavelength corresponding to center of Full Width at Half Maximum of emission band” value (shortened to “λem, wavelength corresponding to center”) was found to be 455 nm; the λexc was 373 nm. Moreover, the “IF Ratio” value in data set [1] (setting [5]) came out at 3.6.
In the same order, the values of `COC(=O)C1=CC(=O)N(c2ccc3oc(=O)c(N4C(=O)C=C(C(=O)OC)C4=O)cc3c2)C1=O` [Compound 5, 3,6-Di-(3′-methoxycarbonylmaleimidyl)chromen-2-one] are 115 nm, 360-600 nm, 447 nm, 332 nm and 2.7.
As for `O=C1C=CC(=O)N1c1ccc(-c2cc3cc(N4C(=O)C=CC4=O)ccc3oc2=O)cc1` [Compound 13, 6-Maleimidyl-3-p-maleimidylphenylchromen-2-one], in data set [1] (10:90 DMSO: water), the Stokes shift is given as 76 nm; the “λem (emission band)” value is 400-550 nm; the “λem, wavelength corresponding to center” value worked out at 460 nm; the λexc is recorded as 384 nm. Also, the “φ (quantum yield)” value in data set [1] (10:90 DMSO: water) turned out to be 0.006. Further, the “IF Ratio” value in data set [1] (10:90 DMSO: water, ratio of areas under emission bands of fluorogen and thiol adduct) came out at 5.2. The “change in fluorescence on addition of ethanethiol” value in data set [2] (3 mM ethanethiol, 1 mM fluorogen, 9:1 H2O:DMSO, over 3 hours) is recorded as “marked increase in fluorescence”. Besides, the “equivalents of thiol at which fluorescence plateau was reached” value in data set [2] (ethanethiol) was about 2.2 equivalents. Besides, in data set [3], the “formation of monothiolated adduct” value is listed as “no monothiolated product was detectable”. In addition, the “variation of observed first-order rate constants with temperature (factor)” value in data set [4] is given as under 2. Besides, on mCys-Fos, the “fluorescent labeling of mCys-Fos” value is reported as “is not”. Moreover, the “fluorescent labeling of diCys-Fos” value on diCys-Fos was “efficiently fluorescently labeled”.
Regarding `O=C1C=CC(=O)N1c1cccc2c(N3C(=O)C=CC3=O)cccc12` [Compound 15, 1,5-Dimaleimidylnaphthalene], in data set [1] (neat DMSO), the Stokes shift is reported as 63 nm; the “λem (emission band)” value is 340-500 nm; the “λem, wavelength corresponding to center” value turned out to be 391 nm; the λexc is 328 nm. For the same molecule, in data set [1] (neat DMSO), the “φ (quantum yield)” value is 1.70 × 10^−3. Also, the “IF Ratio” value in data set [1] (neat DMSO, ratio of areas under emission bands of fluorogen and thiol adduct) came to 31. The “solubility in water / aqueous DMSO” value in “Solubility” was “insoluble in water, even upon the addition of up to 10% DMSO”.
`CCSC1C(=O)N(c2ccc3oc(=O)c(N4C(=O)C(C)C(SCC)C4=O)cc3c2)C(=O)C1C` (centres unmarked) [Compound 9, 3,6-Di-(3′-ethylthio-4′-methylsuccinimidyl)chromen-2-one]: in data set [1] (in DMSO), the Stokes shift was determined as 82 nm and the λexc is 373 nm.
Turning to `CCSC1CC(=O)N(c2ccc(-c3cc4cc(N5C(=O)CC(SCC)C5=O)ccc4oc3=O)cc2)C1=O` (centres unmarked) [Compound 14, 6-(3′-Ethylthiosuccinimidyl)-3-p-(3′-ethylthiosuccinimidyl)phenylchromen-2-one], in data set [1] (10:90 DMSO: water), the Stokes shift came to 76 nm, the λexc is 384 nm and the “φ (quantum yield)” value amounted to 0.223.
